Measured values published in patent publication US20250163057A1, “DCN-1 MODULATING COMPOUNDS AND METHODS OF USE THEREOF” (Cellarity, Inc., priority 2023, published 2025).
Like-named read-outs stand apart in the source and are kept apart here.

Tests used:
DCN1 protein = DCN1 protein (Homo sapiens (Human), UniProt Q96GG9); assay: Intact Protein MS Analysis with the RapidFire-TOF System (covalent adduct formation); format: binding; settings: MS Emax; 400 nM DCN1, 3 hours at room temperature
Method: An MS assay was performed to evaluate the ability of the compounds to covalently modify DCN-1.
DCN1 protein, His-TEV-DCN1, were expressed in E. Coli. The His-tagged protein was first purified with an Ni-NTA column. The His-tag was cleaved using His-tag TEV protease and the His-tags were removed using a second Ni-NTA column. Protein purity was verified with SDS-PAGE and intact MS. DCN1 was dissolved in a buffer containing 25 mM Tris-HCl, 200 mM NaCl, and 1 mM DTT at 400 nM. 11 concentrations of compounds were added to the DCN1 solution and incubated at room temperature for 3 hours, unless otherwise specified. The reaction plates were quenched by adding 0.2% formic acid. […] The cartridge was re-equilibrated with loading buffer for 1 second before collection of the next sample. The Q-TOF was operated in TOF-only positive ionization mode set to the following parameters: Gas Temp=350 C, Drying Gas=7 l/min, Nebulizer=50 psi, Sheath Gas Temp=400 C, Sheath Gas Flow=12 l/min, Vcap=4000 V, Nozzle Voltage=1000 V, Fragmentor=125 V, Skimmer=65 V and Oct 1 RF Vpp=750V. Raw MS data files were deconvoluted and analyzed using the Agilent MassHunter Bioconfirm software package to identify both parent protein and expected compound adduct mass signatures.

[1] = system: Cullin-3 (CUL3) neddylation; assay: AlphaLISA assay for Cullin-3 (CUL3) neddylation in TF 1 cells; format: cell-based; settings: 3 hours treatment; for IC50: Homo sapiens
Summary of the method: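 TF 1 cells in unsupplemented IMDM treated with compound concentrations for 3 h, then lysed. CUL3 neddylation detected by AlphaLISA (biotinylated anti-NEDD8, anti-CUL3 acceptor beads overnight, streptavidin donor beads 1 h); normalized to vehicle (0%) and 1 μM DI-1548 (100%), IC50 from Hill fits.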

[2] = biological target: DCN1 (DCUND1) protein PONY domain (Homo sapiens (Human), UniProt Q96GG9); assay: TR-FRET assay, DCN1 binding with FAM-labeled probe
Chain of DCN1 (DCUND1) protein PONY domain (Q96GG9 60-248): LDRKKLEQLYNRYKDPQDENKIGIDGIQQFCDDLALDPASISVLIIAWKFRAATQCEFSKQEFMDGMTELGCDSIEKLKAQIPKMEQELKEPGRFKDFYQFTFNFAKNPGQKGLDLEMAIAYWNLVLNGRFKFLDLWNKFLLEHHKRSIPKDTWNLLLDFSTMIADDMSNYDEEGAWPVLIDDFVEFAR
Summary of the method: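 Tb-DCN1 PONY domain (E. coli, biotin/streptavidin-Tb); FAM-labelled non-covalent inhibitor probe; TritonX buffer, 200 mM NaCl; 5 nM DCN1 + 20 nM probe or 0.31 nM DCN1 + 900 nM total probe; 0.1% DMSO; TR-FRET read 1, 5, 24 hrs.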

[3] = 24 hr after treatment with compound, read-out: TR FRET IC50 24 hr
[4] = read-out: TR FRET IC50 1 hr, 1 hr after treatment with compound
[5] = TR FRET IC50 1 hr (nM), 1 hr after treatment with compound

Chain of DCN1 protein (Q96GG9 whole entry): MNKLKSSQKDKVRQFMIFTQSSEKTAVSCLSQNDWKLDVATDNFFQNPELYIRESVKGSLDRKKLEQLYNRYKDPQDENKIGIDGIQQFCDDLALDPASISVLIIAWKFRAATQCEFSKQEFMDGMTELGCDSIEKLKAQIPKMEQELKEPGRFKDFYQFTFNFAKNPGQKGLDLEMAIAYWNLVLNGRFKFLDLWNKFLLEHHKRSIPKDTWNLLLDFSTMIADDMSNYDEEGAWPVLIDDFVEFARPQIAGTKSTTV

| SMILES | % Adduct Formation (DCN1 protein) | IC50 ([1]; TF-1, 3 h) [µM] | IC50 [2, 3] [nM] | IC50 [2, 5] [nM] | other results |
| --- | --- | --- | --- | --- | --- |
| CCN1C(=O)[C@@H](NC(=O)c2cccc(C(F)(F)F)c2)[C@@H](c2ccc(F)cc2)c2c(NC(=O)C(F)Cl)nn(-c3ccccc3)c21 (mixture of isomers) [Compound I-120] | + (MS Emax % adduct formation greater than or equal to 0.0 and less than or equal to 30.0) |  |  |  |  |
| CCN1C(=O)[C@@H](NC(=O)c2cccc(C(F)(F)F)c2)[C@@H](c2ccc(F)cc2)c2c([C@@H](C)NC(=O)/C=C/C(F)(F)F)nn(-c3ccccc3)c21 (mixture of isomers) [Compound I-164] | + (MS Emax % adduct formation greater than or equal to 0.0 and less than or equal to 30.0) |  |  |  |  |
| CCN1C(=O)[C@@H](NC(=O)c2cccc(C(F)(F)F)c2)[C@@H](c2ccc(F)cc2)c2c([C@@H](C)NC(=O)/C=C/CN3CCOCC3)nn(-c3ccccc3)c21 (mixture of isomers) [Compound I-165] | + (MS Emax % adduct formation greater than or equal to 0.0 and less than or equal to 30.0) |  |  |  |  |
| CCN1C(=O)[C@@H](NC(=O)c2cccc(C(F)(F)F)c2)[C@@H](c2ccc(F)cc2)c2c([C@@H](C)NC(=O)C3=CCCC3)nn(-c3ccccc3)c21 (mixture of isomers) [Compound I-166] | + (MS Emax % adduct formation greater than or equal to 0.0 and less than or equal to 30.0) |  |  |  |  |
| CCN1C(=O)[C@@H](NC(=O)c2cccc(C(F)(F)F)c2)[C@@H](c2ccc(F)cc2)c2c([C@@H](C)NC(=O)COc3c(F)c(F)cc(F)c3F)nn(-c3ccccc3)c21 (mixture of isomers) [Compound I-168] | + (MS Emax % adduct formation greater than or equal to 0.0 and less than or equal to 30.0) |  |  |  |  |
| C=CC(=O)N[C@H](C)c1nn(-c2ccccc2)c2c1[C@H](c1ccc(F)cc1)[C@H](NC(=O)c1cccc(C(F)(F)F)c1)C(=O)N2CC (mixture of isomers) [Compound I-174] | + (MS Emax % adduct formation greater than or equal to 0.0 and less than or equal to 30.0) |  |  |  |  |
| CCN1C(=O)[C@@H](NC(=O)c2cccc(C(F)(F)F)c2)[C@@H](c2ccc(F)cc2)c2c([C@H](C)NC(=O)CCl)nn(-c3ccccc3)c21 (mixture of isomers) [Compound I-175] | + (MS Emax % adduct formation greater than or equal to 0.0 and less than or equal to 30.0) |  |  |  |  |
| C=C(C)C(=O)N[C@H](C)c1nn(-c2ccccc2)c2c1[C@H](c1ccc(F)cc1)[C@H](NC(=O)c1cccc(C(F)(F)F)c1)C(=O)N2CC (mixture of isomers) [Compound I-191] | + (MS Emax % adduct formation greater than or equal to 0.0 and less than or equal to 30.0) |  |  |  |  |
| CC#CC(=O)N[C@H](C)c1nn(-c2ccccc2)c2c1[C@H](c1ccc(F)cc1)[C@H](NC(=O)c1cccc(C(F)(F)F)c1)C(=O)N2CC (mixture of isomers) [Compound I-209] | + (MS Emax % adduct formation greater than or equal to 0.0 and less than or equal to 30.0) |  |  |  |  |
| CCN1C(=O)[C@@H](NC(=O)c2cccc(C(F)(F)F)c2)[C@@H](c2ccc(F)cc2)c2c([C@@H](C)NC(=O)/C=C/CN(C)C)nn(-c3ccccc3)c21 (mixture of isomers) [Compound I-210] | + (MS Emax % adduct formation greater than or equal to 0.0 and less than or equal to 30.0) |  |  |  |  |
| CCN1C(=O)[C@@H](NC(=O)c2cccc(C(F)(F)F)c2)[C@@H](c2ccc(F)cc2)c2c([C@H](C)NC(=O)C(C)Cl)nn(-c3ccccc3)c21 (mixture of isomers) [Compound I-211] | + (MS Emax % adduct formation greater than or equal to 0.0 and less than or equal to 30.0) |  |  |  |  |
| C=C(CN(C)C)C(=O)N[C@H](C)c1nn(-c2ccccc2)c2c1[C@H](c1ccc(F)cc1)[C@H](NC(=O)c1cccc(C(F)(F)F)c1)C(=O)N2CC (mixture of isomers) [Compound I-213] | +++ (MS Emax % adduct formation greater than 80.0 and less than or equal to 100.0) |  |  |  |  |
| CCN1C(=O)[C@@H](NC(=O)c2cccc(C(F)(F)F)c2)[C@@H](c2ccc(F)cc2)c2c(COCC#N)nn(-c3ccccc3)c21 [Compound I-685] |  | 0.1 to 1 | ≤ 200 |  | IC50 [2, 4]: ≤ 200 nM |
| CCN1C(=O)[C@@H](NC(=O)c2cccc(C(F)(F)F)c2)[C@@H](C2CC2)c2c(C(=O)N3CCC[C@H]3C#N)nn(-c3ccccc3)c21 [Compound I-686] |  |  | ≤ 200 | 1000 to 3000 | Neddylation IC50 (nM) [1]: + + |
| CCN1C(=O)[C@@H](NC(=O)c2cccc(C(F)(F)F)c2)[C@@H](c2ccc(F)cc2)c2c(C(=O)N3CC[C@H](F)[C@H]3C#N)nn(C3CCOCC3)c21 [Compound I-694, N-((4S,5S)-3-((2R,3S)-2-cyano-3-fluoropyrrolidine-1-carbonyl)-7-ethyl-4-(4-fluorophenyl)-6-oxo-1-(tetrahydro-2H-pyran-4-yl)-4,5,6,7-tetrahydro-1H-pyrazolo[3,4-b]pyridin-5-yl)-3-(trifluoromethyl)benzamide] |  | ≤ 0.1 | ≤ 200 |  | IC50 [2, 4]: ≤ 200 nM |
| CCN1C(=O)[C@@H](NC(=O)c2c(Cl)ccc(OC)c2F)[C@@H](C2CC2)c2c(C(=O)N3[C@H](C#N)C[C@H]4C[C@H]43)nn(C3CCOCC3)c21 [Compound I-697] |  | > 1 | 1000 to 3000 | 1000 to 3000 |  |
| CCN1C(=O)[C@@H](NC(=O)C(C2CC2)C2CC2)[C@@H](C2CC2)c2c(C(=O)N3[C@H](C#N)C[C@H]4C[C@H]43)nn(C3CCOCC3)c21 [Compound I-699] |  | > 1 | 1000 to 3000 | 1000 to 3000 |  |
| CCN1C(=O)[C@@H](NC(=O)c2cccc(C(F)(F)F)c2)[C@@H](C2CC2)c2c(C(=O)N3[C@H](C#N)CC[C@@H]3C)nn(C3CCOCC3)c21 [Compound I-700] |  | 0.1 to 1 | 200 to 1000 | 1000 to 3000 |  |
| CCN1C(=O)[C@@H](NC(=O)c2cccc(C(F)(F)F)c2)[C@@H](C2CC2)c2c(C(=O)N(CC#N)C3CC3)nn(C3CC3)c21 [Compound I-702] |  | 0.1 to 1 | 200 to 1000 | 1000 to 3000 |  |
| CCN1C(=O)[C@@H](NC(=O)c2cccc(C(F)(F)F)c2)[C@@H](C2CC2)c2c(C(=O)N3[C@@H](C#N)C[C@@H]4C[C@@H]43)nn(C3CCOCC3)c21 [Compound I-703, N-((4S,5S)-3-((1S,3R,5S)-3-cyano-2-azabicyclo[3.1.0]hexane-2-carbonyl)-4-cyclopropyl-7-ethyl-6-oxo-1-(tetrahydro-2H-pyran-4-yl)-4,5,6,7-tetrahydro-1H-pyrazolo[3,4-b]pyridin-5-yl)-3-(trifluoromethyl)benzamide] |  | > 1 | 1000 to 3000 | 1000 to 3000 |  |
| CCN1C(=O)[C@@H](NC(=O)c2ccc3nn[nH]c3c2)[C@@H](C2CC2)c2c(C(=O)N3[C@H](C#N)C[C@H]4C[C@H]43)nn(C3CCOCC3)c21 [Compound I-705] |  | > 1 | 1000 to 3000 | 1000 to 3000 |  |
| CCN1C(=O)[C@@H](NC(=O)c2ccc3snnc3c2)[C@@H](C2CC2)c2c(C(=O)N3[C@H](C#N)C[C@H]4C[C@H]43)nn(C3CCOCC3)c21 [Compound I-706] |  | ≤ 0.1 | 200 to 1000 | 1000 to 3000 |  |
| CCN1C(=O)[C@@H](NC(=O)c2cccc3ccoc23)[C@@H](C2CC2)c2c(C(=O)N3[C@H](C#N)C[C@H]4C[C@H]43)nn(C3CCOCC3)c21 [Compound I-707] |  |  | ≤ 200 |  | IC50 [1]: ≤ 0.1 µM; IC50 [2, 4]: ≤ 200 nM |
